Results from patent US20230364096A1, “USE OF A COMBINATION COMPRISING A BTK INHIBITOR FOR TREATING CANCERS” (BEIGENE SWITZERLAND GMBH, priority 2016, published 2023).

Experiments:
[1] = test system: REC-1/NK92MI MCL xenograft; assay: Human REC-1/NK92MI mantle cell lymphoma xenograft model; format: in vivo, NOD/SCID mice; settings: Compound 1 2.5 mg/kg p.o. BID, obinutuzumab 2 mg/kg i.p. QW
Procedure: REC-1 cells were cultured in RPMI1640 complete medium supplemented with 10% (v/v) fetal bovine serum, and 100 µg/mL of penicillin and streptomycin. NK92MI/CD16V cell line, overexpressing CD16 and FcRγ chain, was established from parental cell line NK92MI. The cells were maintained in MEM alpha supplemented with 0.2 mM inositol; 0.1 mM 2-mercaptoethanol; 0.02 mM folic acid; 1×NEAA; adjust to a final concentration of 20% (v/v) fetal bovine serum and 100 µg/mL of penicillin and streptomycin. […]
On day 3 after inoculation, animals were randomly divided into four groups with 12 mice per group. […] Treatments were administered in a volume of 10 mL/kg body weight, assessed immediately before dosing and the volume dosed was adjusted accordingly. […] After implantation, primary tumor volume was measured in two dimensions using a calliper.
(§1) Individual body weight was recorded twice weekly, with mice being monitored daily for clinical signs of toxicity for the duration of the study. […]
Tumor volume was calculated using the formula: V = 0.5 × (a × b^2) where a and b are the long and short diameters of the tumor, respectively. Tumor growth inhibition (TGI) was calculated using the following formula: […]

TMD-8 DLBCL xenograft = assay: Human TMD-8 DLBCL xenograft model; format: in vivo, mice; settings: for Tumor growth inhibition (TGI): day 46, Compound 1 7.5 mg/kg p.o. BID, obinutuzumab 10 mg/kg i.p. QW
Procedure: (§2) TMD-8 DLBCL cells were cultured in RPMI1640 complete medium supplemented with 10% (v/v) fetal bovine serum, and 100 µg/mL of penicillin and streptomycin. On the day of implantation, culture medium was replaced with fresh medium. Four hours later, media was removed and cells were collected as described above. Cells were re-suspended in cold (4° C.) PBS and same volume of matrigel was added to give a final concentration of 5×10^7 cells/mL for TMD-8 cells. Re-suspended cells were placed on ice prior to inoculation. The right flank region of each mouse was cleaned with 75% ethanol prior to cell inoculation. Animals were then injected subcutaneously with 1×10^7 TMD-8 cells in 200 µl of cell suspension in the right front flank via a 26-gauge needle.
On day 7 after inoculation, animals were randomly divided into 4 groups with 10 mice per group. […] Treatments were administered in a volume of 10 mL/kg body weight, assessed immediately before dosing and the volume dosed was adjusted accordingly. Compound 1 was administered by oral gavage (p.o.) twice daily (BID) and obinutuzumab was administered by intraperitoneal (i.p.) injection once every week (QW). After implantation, primary tumor volume was measured in two dimensions using a calliper.
Mice were euthanized using carbon dioxide when their tumor volume reached 2,500 mm^3 after twice measurements, the tumor was ulcerated, or body weight loss exceeded 20%.
(§3) Tumor volume was calculated using the formula: V = 0.5 × (a × b^2) where a and b are the long and short diameters of the tumor, respectively. Tumor growth inhibition (TGI) was calculated using the following formula:
(§4) • treated t = treated tumor volume at time t • placebo t = placebo tumor volume at time t

REC-1 MCL xenograft = assay: Human REC-1 MCL xenograft model; format: in vivo, mice; settings: for tumor growth / anti-tumor effect (in words): Compound 1 7.5 mg/kg BID, Ibrutinib 25 mg/kg BID, rituximab 200 µg/dose i.p. Q4D; for Tumor growth inhibition (TGI): Compound 1 7.5 mg/kg p.o. BID, Ibrutinib 25 mg/kg p.o. BID
Procedure: as §2, with “REC-1” for “TMD-8 DLBCL”, “REC-1.” for “TMD-8 cells.”, “REC-1” for “TMD-8”
On day 9 after inoculation, animals were randomly divided into 6 groups with 7 mice per group. […] After implantation, primary tumor volume was measured in two dimensions using a calliper.
Individual body weight was recorded twice weekly, with mice being monitored daily for clinical signs of toxicity for the duration of the study. Mice were euthanized using carbon dioxide when their tumor volume reached 2,500 mm^3 after twice measurements, the tumor was ulcerated, or body weight loss exceeded 20%.
as §3, §4

[2] = test system: A431 epidermoid carcinoma allogeneic model (A431 cells and human PBMCs); assay: Human A431 epidermoid carcinoma allogeneic model (Compound 1 and Mab 1); format: in vivo, NOD/SCID mice; settings: Compound 1 15 mg/kg p.o. BID; Mab 1 10 mg/kg i.p. QW
Procedure: On the day of implantation, human peripheral blood mononuclear cells (PBMCs) were isolated from 150 mL blood donated by a healthy volunteer. Briefly, peripheral blood was collected into vacuum blood collection tubes containing sodium heparin. PBMCs were separated by density gradient centrifugation using Histopaque-1077 and washed one time by Dulbecco’s Phosphate Buffered Saline (DPBS). The cell pellet was suspended with DPBS at appropriate volume to give a final concentration of 1×10^8 cells/mL and placed on ice prior to inoculation.
(§5) A431 cells were cultured in DMEM complete medium supplemented with 10% (v/v) fetal bovine serum, and 100 µg/mL of penicillin and streptomycin. On the day of implantation, culture medium was replaced with fresh medium. […]
(§6) Starting from day 0 after cell inoculation, animals were randomly divided into four groups with 10-11 mice per group. […] Treatments were administered in a volume of 10 mL/kg body weight, assessed immediately before dosing and the volume dosed was adjusted accordingly. […] After implantation, primary tumor volume was measured in two dimensions using a calliper.
as §1
(§7) Tumor volume was calculated using the formula: V = 0.5 × (a × b^2) where a and b are the long and short diameters of the tumor, respectively.

[3] = test system: A431 epidermoid carcinoma allogeneic model (A431 cells and human PBMCs); assay: Human A431 epidermoid carcinoma allogeneic model (Compound 1 and pembrolizumab); format: in vivo, NOD/SCID mice; settings: Compound 1 15 mg/kg p.o. BID; pembrolizumab 10 mg/kg i.p. QW
Procedure: On the day of implantation, human peripheral blood mononuclear cells (PBMCs) were isolated from 150 mL blood donated by a healthy volunteer. Briefly, peripheral blood was collected into vacuum blood collection tubes containing sodium heparin. PBMCs were separated by density gradient centrifugation using Histopaque-1077 and washed one time by Dulbecco’s Phosphate Buffered Saline (DPBS). The cell pellet was suspended with DPBS at appropriate volume to give a final concentration of 5× 10^7 cells/mL and placed on ice prior to inoculation.
as §5, §6, §1, §7

[4] = test system: obinutuzumab-induced ADCC (IFN-γ secretion); assay: Obinutuzumab-induced ADCC assessed by IFN-γ secretion in co-culture of NK92MI cells and Mino cells; format: cell-based, human; settings: various concentrations
Procedure: Mino cells were cultured in RPMI1640 complete medium supplemented with 10% (v/v) fetal bovine serum, and 100 µg/mLof penicillin and streptomycin. NK92MI/CD16V cell line, overexpressing CD16 and FcRγ chain, was established from parental cell line NK92MI. The cells were maintained in MEM alpha supplemented with 0.2 mM inositol; 0.1 mM 2-mercaptoethanol; 0.02 mM folic acid; 1 ×NEAA; adjust to a final concentration of 20% (v/v) fetal bovine serum and 100 µg/mL of penicillin and streptomycin.
0130] Mino cells (2×10^4cells/well) as the target cells (T) were plated into 96-well plate in triplicates. Cells were treated with vehicle or various concentrations of BTK inhibitors for one hour, followed by co-seeding with NK92MI cells (4×10^4cells/well, as the effector cells (E)) and co-treatment with vehicle or obinutuzumab (2 ug/well) for additional 24 hrs. After incubation, the cell-free supernatants of each well were collected, and the levels of human IFN-γ were measured using Human IFN-γ ELISA Ready-SET-Go kit.

[5] = number of mice, 10 mice per group, Compound 1 7.5 mg/kg, obinutuzumab 10 mg/kg

Compound | Tumor growth inhibition (TGI) (TMD-8 DLBCL xenograft) | Objective responses: total (CR+PR) (TMD-8 DLBCL xenograft; [5]) | tumor growth / anti-tumor effect (in words) (REC-1 MCL xenograft) | Tumor growth inhibition (TGI) (REC-1 MCL xenograft) | anti-tumor effect on tumor volume (in words) [3] | also measured
C=CC(=O)N1CCC([C@@H]2CCNc3c(C(N)=O)c(-c4ccc(Oc5ccccc5)cc4)nn32)CC1 [Compound 1, (S)-7-(1-acryloylpiperidin-4-yl)-2-(4-phenoxyphenyl)-4,5,6,7-tetra-hydropyrazolo[1,5-a]pyrimidine-3-carboxamide] | 81% | 5 | tumor growth was retarded | 85% | Neither Compound 1 nor pembrolizumab showed anti-tumor effect | Tumor growth inhibition (TGI) ([1]; day 23): 72%; Objective responses: CR (TMD-8 DLBCL xenograft; [5]): 1; anti-tumor effect on tumor volume (in words) [2]: no anti-tumor effect; inhibition of IFN-γ secretion (in words) [4]: much less effective
C=CC(=O)N1CCC[C@@H](n2nc(-c3ccc(Oc4ccccc4)cc3)c3c(N)ncnc32)C1 [Ibrutinib, reference compound] |  |  |  | 83% |  | 
obinutuzumab: anti-CD20 mAb (Gazyva®) [reference compound] | 61% | 2 |  |  |  | anti-tumor effect (in words) [1]: no anti-tumor effect; Objective responses: PR (TMD-8 DLBCL xenograft; [5]): 2
pembrolizumab: humanized monoclonal IgG4 antibody against PD-1 [reference compound] |  |  |  |  | Neither Compound 1 nor pembrolizumab showed anti-tumor effect | 
rituximab: anti-CD20 mAb [reference compound] |  |  | tumor growth was retarded |  |  | 
